According to publication PMC9604400, “Synthesis, Anticancer and Antitubercular Properties of New Chalcones and Their Nitrogen-Containing Five-Membered Heterocyclic Hybrids Bearing Sulfonamide Moiety” (International Journal of Molecular Sciences, 2022):
Where “and” joins values, the source holds several entries; their conditions need not be identical. Equal values may be shown once.

How the values were obtained:
[1] = system: SR; test: NCI-60 screen (SRB), leukemia; details: Homo sapiens
[2] = system: UO-31; test: NCI-60 screen (SRB), renal cancer
[3] = system: ACHN; test: NCI-60 screen (SRB), renal cancer; details: Homo sapiens
[4] = system: CCRF-CEM; test: NCI-60 screen (SRB), leukemia; details: Homo sapiens
[5] = system: BT-549; test: NCI-60 screen (SRB), breast cancer; details: Homo sapiens
[6] = system: CAKI-1; test: NCI-60 screen (SRB), renal cancer; details: Homo sapiens
[7] = system: RXF 393; test: NCI-60 screen (SRB), renal cancer; details: Homo sapiens
[8] = system: NCI/ADR-RES; test: NCI-60 screen (SRB), ovarian cancer; details: Homo sapiens
[9] = system: OVCAR-5; test: NCI-60 screen (SRB), ovarian cancer; details: Homo sapiens
[10] = system: IGROV1; test: NCI-60 screen (SRB), ovarian cancer; details: Homo sapiens
[11] = system: DU-145; test: NCI-60 screen (SRB), prostate cancer; details: Homo sapiens
[12] = system: KM12; test: NCI-60 screen (SRB), colon cancer; details: Homo sapiens
[13] = system: HCT-116; test: NCI-60 screen (SRB), colon cancer
[14] = system: SK-OV-3; test: NCI-60 screen (SRB), ovarian cancer; details: Homo sapiens
[15] = system: OVCAR-3; test: NCI-60 screen (SRB), ovarian cancer; details: Homo sapiens
[16] = system: MDA-MB-231/ATCC; test: NCI-60 screen (SRB), breast cancer; details: Homo sapiens
[17] = system: MDA-MB-468; test: NCI-60 screen (SRB), breast cancer; details: Homo sapiens
[18] = system: K-562; test: NCI-60 screen (SRB), leukemia; details: Homo sapiens
[19] = system: SK-MEL-5; test: NCI-60 screen (SRB), melanoma; details: Homo sapiens
[20] = system: NCI-H226; test: NCI-60 screen (SRB), non-small cell lung cancer; details: Homo sapiens
[21] = system: U251; test: NCI-60 screen (SRB), CNS cancer; details: Homo sapiens
[22] = system: 786-0; test: NCI-60 screen (SRB), renal cancer; details: Homo sapiens
[23] = system: UACC-257; test: NCI-60 screen (SRB), melanoma; details: Homo sapiens
[24] = system: A549/ATCC; test: NCI-60 screen (SRB), non-small cell lung cancer; details: Homo sapiens
[25] = system: HCT-15; test: NCI-60 screen (SRB), colon cancer; details: Homo sapiens
[26] = system: MALME-3M; test: NCI-60 screen (SRB), melanoma; details: Homo sapiens
[27] = system: EKVX; test: NCI-60 screen (SRB), non-small cell lung cancer; details: Homo sapiens
[28] = system: 60 human cancer cell lines; test: NCI-60 screen (SRB), whole panel; format: cell-based; details: single dose 10 μM, mean over 60 cell lines
[29] = system: SNB-75; test: NCI-60 screen (SRB), CNS cancer; details: Homo sapiens
[30] = system: RPMI-8226; test: NCI-60 screen (SRB), leukemia; details: Homo sapiens
[31] = system: SF-295; test: NCI-60 screen (SRB), CNS cancer; details: Homo sapiens
[32] = system: MOLT-4; test: NCI-60 screen (SRB), leukemia; details: Homo sapiens
[33] = system: PC-3; test: NCI-60 screen (SRB), prostate cancer; details: Homo sapiens

## COc1cc(OC)c(S(=O)(=O)N(CCCl)CCCl)cc1C(=O)/C=C/c1cc(OC)c(OC)c(OC)c1 [Compound 18e, (E)-N,N-bis(2-Chloroethyl)-2,4-dimethoxy-5-(3-(3,4,5-trimethoxyphenyl)acryloyl)benzenesulfonamide]
[1]
  IC50: 0.99 µM
[1]; read-out: LC50
  CC50: > 100 µM
[2]; Homo sapiens, UO-31
  IC50: 2.92 µM
[2]; Homo sapiens, UO-31, read-out: LC50
  CC50: 5.51 µM
[2]; UO-31, single dose 10 μM
  lethality: 93.86%
[3]
  IC50: 6.16 µM
[3]; read-out: LC50
  CC50: > 100 µM
[4]
  IC50: 1.69 µM
[4]; read-out: LC50
  CC50: > 100 µM
[5]; BT-549
  IC50: 2.92 µM
[5]; BT-549, read-out: LC50
  CC50: 6.24 µM
[6]; CAKI-1
  IC50: > 100 µM
[6]; CAKI-1, read-out: LC50
  CC50: > 100 µM
[7]; RXF 393
  IC50: 2.83 µM
[7]; RXF 393, read-out: LC50
  CC50: 6.44 µM
[8]
  IC50: > 100 µM
[8]; read-out: LC50
  CC50: > 100 µM
[9]; OVCAR-5
  IC50: 6.8 µM
[9]; OVCAR-5, read-out: LC50
  CC50: > 100 µM
[10]; IGROV-1
  IC50: 9.05 µM
[10]; IGROV-1, read-out: LC50
  CC50: > 100 µM
[11]; DU-145
  IC50: 14.8 µM
[11]; DU-145, read-out: LC50
  CC50: > 100 µM
[12]; KM12
  IC50: 4.25 µM
[12]; KM12, read-out: LC50
  CC50: 9.4 µM
[13]; HCT-116, single dose 10 μM
  lethality: 87.74%
[13]; Homo sapiens, HCT-116
  IC50: 2.82 µM
[13]; Homo sapiens, HCT-116, read-out: LC50
  CC50: 6.47 µM
[14]; SK-OV-3
  IC50: 13 µM
[14]; SK-OV-3, read-out: LC50
  CC50: > 100 µM
[15]; OVCAR-3
  IC50: 6.62 µM
[15]; OVCAR-3, read-out: LC50
  CC50: > 100 µM
[16]; MDA-MB-231
  IC50: > 100 µM
[16]; MDA-MB-231, read-out: LC50
  CC50: > 100 µM
[17]; MDA-MB-468
  IC50: 3.66 µM
[17]; MDA-MB-468, read-out: LC50
  CC50: 8.84 µM
[18]; K562
  IC50: 1.3 µM
[18]; K562, read-out: LC50
  CC50: > 100 µM
[19]; SK-MEL-5
  IC50: 3.64 µM
[19]; SK-MEL-5, read-out: LC50
  CC50: 7.19 µM
[20]; NCI-H226
  IC50: 2.61 µM
[20]; NCI-H226, read-out: LC50
  CC50: > 100 µM
[21]; U-251
  IC50: 3.68 µM
[21]; U-251, read-out: LC50
  CC50: 7.61 µM
[22]; 786-0
  IC50: 5.66 µM
[22]; 786-0, read-out: LC50
  CC50: > 100 µM
[23]; UACC-257
  IC50: 3.89 µM
[23]; UACC-257, read-out: LC50
  CC50: 9.14 µM
[24]; A549
  IC50: 3.11 µM
[24]; A549, read-out: LC50
  CC50: > 100 µM
[25]; HCT-15
  IC50: 3.98 µM
[25]; HCT-15, read-out: LC50
  CC50: > 100 µM
[26]
  IC50: 7.18 µM
[26]; read-out: LC50
  CC50: > 100 µM
[27]
  IC50: 2.69 µM
[27]; read-out: LC50
  CC50: > 100 µM
[28]
  mean lethality: 25.48%
[28]; over 100% = cell death
  Mean growth inhibition (GI) percentage: 100.00% and 125.48%
[29]; SNB-75
  IC50: 8.53 µM
[29]; SNB-75, read-out: LC50
  CC50: > 100 µM
[30]; RPMI-8226
  IC50: 2.52 µM
[30]; RPMI-8226, read-out: LC50
  CC50: > 100 µM
[31]; SF-295
  IC50: 35.4 µM
[31]; SF-295, read-out: LC50
  CC50: > 100 µM
[32]; MOLT-4
  IC50: 2.04 µM
[32]; MOLT-4, read-out: LC50
  CC50: > 100 µM
[33]; PC-3
  IC50: > 100 µM
[33]; PC-3, read-out: LC50
  CC50: > 100 µM
